Several values for one entry are separate records, joined by “and”; a condition that tells them apart may be missing. Equal entries are not always repeated. Inconclusive results are not listed.

The values that follow come from PubChem BioAssay AID206 (DTP/NCI, 2004).

The experiment has as its system nude mice, HT29 intrarenal xenograft, tumor weight T/C. Briefly: NCI In Vivo Anticancer Drug Screen. Data for tumor model HT29;CX-1 Human Adenocarcinoma (MER+) (intrarenal inoculation) in NU/NU Swiss (nude) mice. The note with it: endpoint: mean tumor weight change, higher = larger tumour. Summed up: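 Mice with transplanted tumors are dosed with compound while controls get vehicle only. Survival or tumor burden is then assessed per group, and the treated value is expressed relative to control.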

The mark [1] stands for this setting: dose: 225.0 mg/kg/injection, schedule: Q04DX004 (sc), vehicle: saline with Tween-80.
The mark [2] stands for this setting: dose: 450.0 mg/kg/injection, schedule: Q04DX004 (sc), vehicle: saline with Tween-80.
The mark [3] stands for this setting: dose: 100.0 mg/kg/injection, schedule: Q04DX004 (sc), vehicle: saline with Tween-80.
Where [4] appears, read: dose: 50.0 mg/kg/injection, schedule: Q01DX010 (sc), vehicle: saline.
[5] abbreviates: dose: 150.0 mg/kg/injection, schedule: Q04DX004 (sc), vehicle: Klucel (hydroxypropylcellulose) (HPC).
Where [6] appears, read: dose: 300.0 mg/kg/injection, schedule: Q04DX004 (sc), vehicle: Klucel (hydroxypropylcellulose) (HPC).
[7] abbreviates: dose: 600.0 mg/kg/injection, schedule: Q04DX004 (sc), vehicle: Klucel (hydroxypropylcellulose) (HPC).
The mark [8] stands for this setting: dose: 50.0 mg/kg/injection, schedule: Q01DX010 (sc), vehicle: saline with Tween-80.
The mark [9] stands for this setting: dose: 100.0 mg/kg/injection, schedule: Q01DX010 (sc), vehicle: saline with Tween-80.
Setting [10] is: dose: 200.0 mg/kg/injection, schedule: Q01DX010 (sc), vehicle: saline with Tween-80.
[11] abbreviates: dose: 25.0 mg/kg/injection, schedule: Q01DX010 (sc), vehicle: Klucel (hydroxypropylcellulose) (HPC).
Where [12] appears, read: dose: 150.0 mg/kg/injection, schedule: Q04DX004 (sc), vehicle: saline with Tween-80.

For the compound `CC(=O)Nc1ccc(S(=O)(=O)CO)cc1`, the T/C under setting [1] was 73 % of control and the T/C under setting [2] was 57 % of control.

In the case of `CCN(CC)CCOC(=O)Cc1cccc2c(=O)cc(-c3ccccc3)oc12`, the T/C is 70 % of control (dose: 50.0 mg/kg/injection, schedule: Q04DX004 (sc), vehicle: saline with Tween-80); 104 % of control under setting [3]; 102 % of control (dose: 200.0 mg/kg/injection, schedule: Q04DX004 (sc), vehicle: saline with Tween-80).

In the case of `c1cc(-c2cc3ccc(C4=NCCN4)cc3[nH]2)ccc1C1=NCCN1`, the T/C by setting is: (dose: 25.0 mg/kg/injection, schedule: Q04DX004 (sc), vehicle: saline) 84 % of control; (dose: 50.0 mg/kg/injection, schedule: Q04DX004 (sc), vehicle: saline) 154 % of control; (dose: 100.0 mg/kg/injection, schedule: Q04DX004 (sc), vehicle: saline) 124 % of control.

As to `COc1cccc2c1C(=O)c1c(O)c3c(c(O)c1C2=O)C[C@H](O)C[C@@H]3OC1CC(N)C(O)C(C)O1` (stereo partly drawn), the T/C is 114 % of control (dose: 12.5 mg/kg/injection, schedule: Q01DX010 (sc), vehicle: saline); 41 % of control (dose: 25.0 mg/kg/injection, schedule: Q01DX010 (sc), vehicle: saline); 87 % of control under setting [4].

As to `O=S(=O)(O)O`, the T/C (dose: 75.0 mg/kg/injection, schedule: Q04DX004 (sc), vehicle: Klucel (hydroxypropylcellulose) (HPC)) is 86 % of control; the T/C under setting [5] was 116 % of control; the T/C under setting [6] is 65 % of control.

With `CCOC(=O)Nc1cc2c(c(N)n1)N=C(c1ccccc1)CN2`, the T/C by setting is: (dose: 12.5 mg/kg/injection, schedule: Q04DX004 (sc), vehicle: saline with Tween-80) 90 % of control; (dose: 25.0 mg/kg/injection, schedule: Q04DX004 (sc), vehicle: saline with Tween-80) 104 % of control.

For `CCC(=O)O[C@H]1CC[C@H]2[C@@H]3CCC4=CC(=O)CC[C@]4(C)[C@H]3CC[C@]12C`, the T/C is 59 % of control under setting [6]; 82 % of control under setting [7]; 103 % of control (dose: 1200.0 mg/kg/injection, schedule: Q04DX004 (sc), vehicle: Klucel (hydroxypropylcellulose) (HPC)); 52 % of control (dose: 2400.0 mg/kg/injection, schedule: Q04DX004 (sc), vehicle: Klucel (hydroxypropylcellulose) (HPC)).

On to `NS(=O)(=O)OCCCCCCCOS(N)(=O)=O`, for which the T/C by setting is: (dose: 37.5 mg/kg/injection, schedule: Q04DX004 (ip), vehicle: saline with Tween-80) 74 % of control; (dose: 75.0 mg/kg/injection, schedule: Q04DX004 (ip), vehicle: saline with Tween-80) 102 % of control; (dose: 150.0 mg/kg/injection, schedule: Q04DX004 (ip), vehicle: saline with Tween-80) 35 % of control.

For the compound `CC1=CC(=Nc2ccc(N(CCCl)CCCl)cc2)C=C(C)C1=O`, the T/C runs as follows: under setting [5], 71 % of control; under setting [6], 76 % of control; under setting [7], 53 % of control.

Consider `Cc1cc(Nc2ccc3c(c2)OCO3)c2cc3c(cc2n1)OCO3`, for which the T/C is 79 % of control under setting [6] and 198 % of control under setting [7].

`O=C1NC(c2ccccc2)N=C2Oc3ccccc3C=C12` (stereo not drawn): the T/C was 115 % of control under setting [8]; 155 % of control under setting [9]; 77 % of control under setting [10]; 54 % of control (dose: 400.0 mg/kg/injection, schedule: Q01DX010 (sc), vehicle: saline with Tween-80).

As for `O=P1(N(CCCl)CCCl)NCCCO1` (stereo not drawn), the T/C was 75 % of control (dose: 40.0 mg/kg/injection, schedule: Q04DX004 (ip), vehicle: saline); 58 % of control under setting [4]; 53 % of control (dose: 60.0 mg/kg/injection, schedule: Q04DX004 (ip), vehicle: saline); 26 % of control (dose: 90.0 mg/kg/injection, schedule: Q04DX004 (ip), vehicle: saline).

Turning to `F[B-](F)(F)F`, the T/C is, setting by setting: (dose: 225.0 mg/kg/injection, schedule: Q04DX004 (sc), vehicle: gum acacia) 106 % of control; (dose: 450.0 mg/kg/injection, schedule: Q04DX004 (sc), vehicle: gum acacia) 85 % of control; (dose: 900.0 mg/kg/injection, schedule: Q04DX004 (sc), vehicle: gum acacia) 69 % of control.

Take `COc1cccc2c1C(=O)c1c(O)c3c(c(O)c1C2=O)C[C@@](O)(C(=O)CO)C[C@@H]3OC1CC(N(C)C)C(O)C(C)O1` (stereo partly drawn): the T/C was 19 % of control (dose: 1.0 mg/kg/injection, schedule: Q01DX010 (sc), vehicle: water); 94 % of control (dose: 2.0 mg/kg/injection, schedule: Q01DX010 (sc), vehicle: water); 29 % of control (dose: 4.0 mg/kg/injection, schedule: Q01DX010 (sc), vehicle: water).

On to `O=C(CCBr)N1CCN(C(=O)CCBr)CC1`, for which the T/C by setting is: (dose: 12.5 mg/kg/injection, schedule: Q01DX010 (sc), vehicle: Klucel (hydroxypropylcellulose) (HPC)) 71 % of control; under setting [11], 64 % of control.

As to `O=c1ncccn1[C@@H]1O[C@H](CO)[C@H](O)C1O` (stereo partly drawn), the T/C (dose: 300.0 mg/kg/injection, schedule: Q04DX004 (sc), vehicle: saline) was 110 % of control; the T/C (dose: 600.0 mg/kg/injection, schedule: Q04DX004 (sc), vehicle: saline) was 87 % of control; the T/C (dose: 1200.0 mg/kg/injection, schedule: Q04DX004 (sc), vehicle: saline) was 51 % of control; the T/C (dose: 2400.0 mg/kg/injection, schedule: Q04DX004 (sc), vehicle: saline) was 55 % of control.

In the case of `CC1(CO)C(O)CCC2(C)C1CCC1CC3CC12CCC3(O)CO` (stereo not drawn), the T/C is 50 % of control and 65 % of control under setting [8]; 69 % of control under setting [9]; 65 % of control under setting [10].

Take `O=C1CN(Cc2ccc3c(c2)OCO3)NO1`: the T/C is, setting by setting: under setting [12], 92 % of control; (dose: 300.0 mg/kg/injection, schedule: Q04DX004 (sc), vehicle: saline with Tween-80) 103 % of control.

With `O=C(O)C1CC1.[Ag]`, the T/C was 81 % of control (dose: 75.0 mg/kg/injection, schedule: Q04DX004 (sc), vehicle: saline with Tween-80) and 64 % of control under setting [12].

On to `COC(=O)C(Cl)(Cl)N=Nc1c(Cl)cc(Cl)c(C)c1Cl`, for which the T/C is, setting by setting: under setting [1], 87 % of control; under setting [2], 105 % of control; (dose: 900.0 mg/kg/injection, schedule: Q04DX004 (sc), vehicle: saline with Tween-80) 81 % of control; (dose: 1800.0 mg/kg/injection, schedule: Q04DX004 (sc), vehicle: saline with Tween-80) 115 % of control.

For `CC(=O)OCc1cc(=O)n(C)c2c3c4c(cc12)c(C)cc(=O)n4CO3`, the T/C by setting is: under setting [11], 99 % of control; (dose: 50.0 mg/kg/injection, schedule: Q01DX010 (sc), vehicle: Klucel (hydroxypropylcellulose) (HPC)) 105 % of control; (dose: 100.0 mg/kg/injection, schedule: Q01DX010 (sc), vehicle: Klucel (hydroxypropylcellulose) (HPC)) 59 % of control; (dose: 200.0 mg/kg/injection, schedule: Q01DX010 (sc), vehicle: Klucel (hydroxypropylcellulose) (HPC)) 34 % of control.

Take `C=C(C)C(=NC(C)(C)C)Nc1ccccc1`: the T/C under setting [3] is 52 % of control.

`COc1cc2c(c(OC)c1OC)-c1ccc(OC)c(=O)cc1[C@@H](NC(=O)CCl)CC2`: the T/C was 60 % of control (dose: 0.63 mg/kg/injection, schedule: Q04DX004 (sc), vehicle: saline with Tween-80); 32 % of control (dose: 1.25 mg/kg/injection, schedule: Q04DX004 (sc), vehicle: saline with Tween-80); 57 % of control (dose: 2.5 mg/kg/injection, schedule: Q04DX004 (sc), vehicle: saline with Tween-80).

As for `NC(=O)Oc1cccc(OC(N)=O)c1`, the T/C reads like this: (dose: 50.0 mg/kg/injection, schedule: Q04DX004 (sc), vehicle: suspension in saline) 110 % of control; (dose: 100.0 mg/kg/injection, schedule: Q04DX004 (sc), vehicle: suspension in saline) 102 % of control; (dose: 200.0 mg/kg/injection, schedule: Q04DX004 (sc), vehicle: suspension in saline) 29 % of control; (dose: 400.0 mg/kg/injection, schedule: Q04DX004 (sc), vehicle: suspension in saline) 62 % of control.

Turning to `CC[C@H](CC[C@@H](C)C1CC[C@H]2[C@@H]3CC=C4C[C@@H](OP(=O)(N5CC5)N5CC5)CC[C@]4(C)[C@H]3CC[C@]12C)C(C)C` (stereo partly drawn), the T/C by setting is: under setting [9], 73 % of control; (dose: 800.0 mg/kg/injection, schedule: Q01DX010 (sc), vehicle: saline with Tween-80) 97 % of control.
